Laboratory results from patent publication US8026233B2, “P38 inhibitors and methods of use thereof” (Array BioPharma Inc., priority 2006, dated 2011).

Key:
Conditions in all cases: stated in words only
bioavailability = format: in vivo
hERG channel = hERG channel (Homo sapiens, UniProt Q12809); assay: activity in the hERG channel
first pass metabolism = assay: first pass metabolism
[1] = target: p-glycoprotein (PGP) transporter (Homo sapiens, UniProt P08183); assay: affinity for p-glycoprotein transporter
Chain of p-glycoprotein (PGP) transporter (P08183 whole entry): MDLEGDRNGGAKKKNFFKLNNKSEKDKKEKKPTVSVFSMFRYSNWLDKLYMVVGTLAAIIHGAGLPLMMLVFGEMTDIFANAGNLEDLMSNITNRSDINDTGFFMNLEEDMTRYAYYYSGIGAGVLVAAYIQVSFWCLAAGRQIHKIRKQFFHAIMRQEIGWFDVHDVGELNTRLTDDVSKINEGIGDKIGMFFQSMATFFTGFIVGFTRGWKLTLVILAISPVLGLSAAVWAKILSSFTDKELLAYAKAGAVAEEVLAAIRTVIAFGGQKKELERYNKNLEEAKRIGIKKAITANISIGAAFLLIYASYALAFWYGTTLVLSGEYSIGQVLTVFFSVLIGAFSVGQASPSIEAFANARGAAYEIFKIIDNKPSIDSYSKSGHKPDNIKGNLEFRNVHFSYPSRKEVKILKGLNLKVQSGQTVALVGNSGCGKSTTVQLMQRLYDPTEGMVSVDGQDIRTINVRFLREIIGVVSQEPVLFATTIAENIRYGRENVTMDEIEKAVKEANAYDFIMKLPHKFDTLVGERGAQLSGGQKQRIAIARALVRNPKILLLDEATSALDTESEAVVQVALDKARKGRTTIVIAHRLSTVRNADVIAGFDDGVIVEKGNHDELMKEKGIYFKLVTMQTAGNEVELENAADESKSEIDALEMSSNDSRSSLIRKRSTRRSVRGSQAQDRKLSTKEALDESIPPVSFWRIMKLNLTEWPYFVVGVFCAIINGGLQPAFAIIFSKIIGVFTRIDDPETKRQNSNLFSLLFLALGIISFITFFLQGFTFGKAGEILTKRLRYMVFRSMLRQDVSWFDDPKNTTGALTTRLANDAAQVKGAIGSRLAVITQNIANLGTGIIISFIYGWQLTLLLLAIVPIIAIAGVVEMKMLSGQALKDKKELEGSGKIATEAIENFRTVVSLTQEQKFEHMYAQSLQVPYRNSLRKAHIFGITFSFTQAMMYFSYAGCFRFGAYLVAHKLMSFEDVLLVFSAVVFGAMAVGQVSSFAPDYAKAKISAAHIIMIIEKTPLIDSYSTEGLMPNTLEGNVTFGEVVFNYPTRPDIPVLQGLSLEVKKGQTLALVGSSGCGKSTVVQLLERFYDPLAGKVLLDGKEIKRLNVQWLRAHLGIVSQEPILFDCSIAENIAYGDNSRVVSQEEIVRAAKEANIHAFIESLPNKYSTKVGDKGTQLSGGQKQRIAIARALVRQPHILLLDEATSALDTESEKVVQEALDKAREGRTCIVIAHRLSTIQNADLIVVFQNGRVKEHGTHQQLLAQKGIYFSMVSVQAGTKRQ

Chain of hERG channel (Q12809 whole entry): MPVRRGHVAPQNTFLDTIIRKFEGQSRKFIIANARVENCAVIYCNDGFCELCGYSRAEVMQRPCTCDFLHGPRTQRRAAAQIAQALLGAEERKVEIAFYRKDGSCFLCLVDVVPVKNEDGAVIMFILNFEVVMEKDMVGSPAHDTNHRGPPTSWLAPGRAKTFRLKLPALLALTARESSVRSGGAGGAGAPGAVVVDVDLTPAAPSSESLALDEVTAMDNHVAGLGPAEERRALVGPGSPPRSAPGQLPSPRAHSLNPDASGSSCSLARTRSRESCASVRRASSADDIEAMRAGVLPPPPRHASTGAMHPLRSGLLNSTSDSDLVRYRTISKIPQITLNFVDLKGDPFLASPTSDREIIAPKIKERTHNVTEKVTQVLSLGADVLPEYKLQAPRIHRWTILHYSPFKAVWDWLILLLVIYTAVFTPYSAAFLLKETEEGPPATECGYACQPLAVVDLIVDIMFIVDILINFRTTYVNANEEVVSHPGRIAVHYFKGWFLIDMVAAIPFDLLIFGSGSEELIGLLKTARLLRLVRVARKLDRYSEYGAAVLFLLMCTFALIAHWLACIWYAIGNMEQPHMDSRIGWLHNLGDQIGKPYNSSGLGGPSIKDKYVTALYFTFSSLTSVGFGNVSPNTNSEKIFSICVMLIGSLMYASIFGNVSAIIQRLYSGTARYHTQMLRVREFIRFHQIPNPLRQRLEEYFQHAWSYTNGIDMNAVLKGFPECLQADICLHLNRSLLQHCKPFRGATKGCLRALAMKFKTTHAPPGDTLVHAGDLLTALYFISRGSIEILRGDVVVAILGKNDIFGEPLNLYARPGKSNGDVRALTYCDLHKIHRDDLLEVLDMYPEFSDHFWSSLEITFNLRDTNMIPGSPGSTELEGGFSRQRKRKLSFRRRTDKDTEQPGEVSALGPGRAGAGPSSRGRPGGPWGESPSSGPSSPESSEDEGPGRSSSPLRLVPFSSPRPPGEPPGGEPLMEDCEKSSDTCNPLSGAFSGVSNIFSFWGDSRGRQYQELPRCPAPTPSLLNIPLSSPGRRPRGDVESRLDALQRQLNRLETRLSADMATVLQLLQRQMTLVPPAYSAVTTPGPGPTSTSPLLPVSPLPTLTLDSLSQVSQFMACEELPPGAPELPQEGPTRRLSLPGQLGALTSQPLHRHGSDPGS

For CC(C)(F)Cn1ncc2cc(Oc3ccc(F)cc3F)c(C(=O)N[C@H]3CCNC3=O)cc21 [Example 27, (S)-5-(2,4-difluorophenoxy)-1-(2-fluoro-2-methylpropyl)-N-(2-oxopyrrolidin-3-yl)-1H-indazole-6-carboxamide], the bioavailability (bioavailability) was “relatively good”, the “activity in the hERG channel (a predictor for cardiac side effects)” value (hERG channel) was “low activity” and the first pass metabolism (first pass metabolism) was “relatively low”. For the same compound, the “affinity for p-glycoprotein (PGP) transporter (which affects cell permeability)” value [1] was “low affinity”.
